In patent publication US12630498B2 (Genzyme Corporation, priority 2019, dated 2026):

Key:
[1] = biological target: T1, CFTR-mediated transepithelial chloride transport in primary human bronchial epithelial cells from a ΔF508 homozygous CF donor (Homo sapiens, UniProt P13569, DEL508-508); test: TECC24 recording of CFTR-mediated transepithelial chloride transport in CF-HBE cells (AUC fold over DMSO); type: cell-based; settings: test agent 10 μM, 48 hours incubation, AUC of forskolin-stimulated IEQ relative to DMSO
T1 construct: Primary human bronchial epithelial cells from a ΔF508 homozygous CF donor; host or cells: primary CF-HBE cells, ΔF508 homozygous donor
T1 sequence (P13569 with tags, fused parts or gaps DEL508-508): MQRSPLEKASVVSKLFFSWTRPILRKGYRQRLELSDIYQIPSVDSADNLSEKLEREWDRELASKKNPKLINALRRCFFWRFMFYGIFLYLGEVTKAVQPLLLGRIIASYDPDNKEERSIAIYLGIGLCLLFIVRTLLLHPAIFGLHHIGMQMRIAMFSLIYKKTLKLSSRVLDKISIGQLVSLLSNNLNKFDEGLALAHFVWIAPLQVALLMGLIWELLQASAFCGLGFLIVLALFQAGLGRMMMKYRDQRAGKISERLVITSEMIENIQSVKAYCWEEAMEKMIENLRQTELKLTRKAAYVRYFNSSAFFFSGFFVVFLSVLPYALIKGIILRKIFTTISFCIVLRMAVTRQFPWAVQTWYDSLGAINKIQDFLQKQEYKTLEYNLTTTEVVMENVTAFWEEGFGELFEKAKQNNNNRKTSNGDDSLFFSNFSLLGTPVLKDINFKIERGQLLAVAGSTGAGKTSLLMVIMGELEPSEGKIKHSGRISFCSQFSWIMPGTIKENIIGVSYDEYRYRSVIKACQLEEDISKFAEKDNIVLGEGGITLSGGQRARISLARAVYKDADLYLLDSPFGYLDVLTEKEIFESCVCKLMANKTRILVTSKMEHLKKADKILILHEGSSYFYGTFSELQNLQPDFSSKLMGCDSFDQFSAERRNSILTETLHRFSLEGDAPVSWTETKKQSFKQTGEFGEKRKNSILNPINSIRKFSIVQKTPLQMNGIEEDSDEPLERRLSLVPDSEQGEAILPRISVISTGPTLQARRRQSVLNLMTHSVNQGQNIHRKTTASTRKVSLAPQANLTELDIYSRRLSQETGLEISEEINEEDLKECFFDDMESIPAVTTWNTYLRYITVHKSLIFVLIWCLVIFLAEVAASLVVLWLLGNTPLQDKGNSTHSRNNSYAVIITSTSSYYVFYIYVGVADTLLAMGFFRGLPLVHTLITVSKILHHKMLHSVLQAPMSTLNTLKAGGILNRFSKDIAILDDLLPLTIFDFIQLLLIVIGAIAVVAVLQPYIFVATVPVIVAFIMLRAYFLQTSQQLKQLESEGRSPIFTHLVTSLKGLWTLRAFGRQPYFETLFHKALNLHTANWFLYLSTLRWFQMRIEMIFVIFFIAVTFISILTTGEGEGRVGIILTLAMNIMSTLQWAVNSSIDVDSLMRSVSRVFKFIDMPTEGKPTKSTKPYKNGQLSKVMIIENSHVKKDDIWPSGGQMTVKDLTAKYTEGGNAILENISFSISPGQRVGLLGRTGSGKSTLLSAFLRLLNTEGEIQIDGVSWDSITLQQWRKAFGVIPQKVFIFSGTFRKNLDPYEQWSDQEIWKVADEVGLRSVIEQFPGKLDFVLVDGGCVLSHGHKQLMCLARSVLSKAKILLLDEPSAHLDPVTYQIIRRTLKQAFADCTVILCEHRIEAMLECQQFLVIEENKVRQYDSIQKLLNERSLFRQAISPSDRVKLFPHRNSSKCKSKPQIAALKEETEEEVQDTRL
Method: Example 316: TECC24 AUC Fold Over DMSO @ 10 uM
The effects of a test agent on CFTR-mediated transepithelial chloride transport was measured using TECC24 recording analysis. Test agents were solubilized in DMSO. Solubilized test agents were mixed with incubation medium containing DMEM/F12, Ultroser G (2%; Crescent Chemical, catalog #67042), Hyclone Fetal Clone II (2%; GE Healthcare, catalog #SH30066.02), bovine brain extract (0.25%; Lonza, catalog #CC-4098), insulin (2.5 μg/mL), IL-13 (10 ng/mL), hydrocortisone (20 nM), transferrin (2.5 μg/mL), triiodothyronine (500 nM), ethanolamine (250 nM), epinephrine (1.5 μM), phosphoethanolamine (250 nM), and retinoic acid (10 nM). Primary human bronchial epithelial cells from a ΔF508 homozygous CF donor (CF-HBE cells; from University of North Carolina Cystic Fibrosis Tissue Procurement Center), grown on Transwell HTS 24-well cell culture inserts (Costar, catalog #3378), were exposed to test agents or controls dissolved in incubation medium. The CF-HBE cells were cultured at 36.5° C. for 48 hours before TECC24 recordings were performed in the presence or absence of test agent, a positive control or vehicle (DMSO).
Following incubation, the transwell cell culture inserts containing the test agent or control-treated CF-HBE cells were loaded onto a TECC24 apparatus (TECC v7 or MTECC v2; EP Design) to record the transepithelial voltage (VT) and resistance (TEER) using 4 AgCl electrodes per well configured in current-clamp mode. The apical and basolateral bath solutions both contained (in mM) 140 NaCl, 5 KCl, 2 CaCl2), 1 MgCl2, 10 Hepes, and 10 glucose (adjusted to pH 7.4 with NaOH). To inhibit basal Na+ absorption, the ENaC inhibitor benzamil (10 μM) was added to the bath. Then, the adenylate cyclase activator, forskolin (10 μM), was added to the bath to activate CFTR. The forskolin-stimulated Cl-transport was halted by addition of CFTR inhibitor-172 (20 μM) to the bath at the end of the experiment to confirm specificity. VT and TEER recordings were digitally acquired at routine intervals using TECC or MTECC software (EP Design). VT and TEER were transformed into equivalent transepithelial Cl-current (IEQ), and the Area Under the Curve (AUC) of the IEQ time course between forskolin and CFTR inhibitor-172 addition was generated using Excel (Microsoft). Efficacy is expressed as the ratio of the test agent AUC divided by vehicle AUC. EC50s based on AUC are generated using the non-linear regression log(agonist) vs. response function in Prism software (GraphPad) with Hill Slope fixed=1.
If a test agent increased the AUC of the forskolin-stimulated IEQ relative to vehicle in CF-HBE cells, and this increase was inhibited by CFTR inhibitor-172, then the test agent was considered a CFTR corrector.

[2] = biological target: T2, human Cystic Fibrosis Transmembrane Conductance Regulator (CFTR) harboring the ΔF508 mutation (Homo sapiens, UniProt P13569, DEL508-508); test: H441 cell ΔF508-CFTR-HRP cell surface assay (Emax and EC50); type: cell-based; settings: for Emax: NCI-H441, NA = Not active
T2 construct: expressed in transfected cells; host or cells: H441 carcinoma line (G418-selected)
T2 sequence (P13569 with tags, fused parts or gaps DEL508-508): as above
In short: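 H441 and 41o- bronchial epithelial cells expressing ΔF508-CFTR with an extracellular-loop-4 HRP tag were treated with a 15-point compound series (24.5–0.001 μM) for two nights, H441 at 27° C, 41o- at 37° C with 0.0005 mg/ml doxycycline. Surface HRP luminescence read; % of maximum VX809 signal and EC50 derived.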

Row | TECC24 AUC fold over DMSO @10 μM [1] | EC50 [2] [nM] | Emax [2] [%] | Compound
1 | C (“C” refers to AUC @10 uM <4) | – | – | CC(OCc1ccccc1)[C@H](NC(=O)c1ccc2ccccc2c1OCc1ccc(OC(F)(F)F)cc1)C(=O)O (stereo in doubt) [Example 188, O-benzyl-N-(1-((4-(trifluoromethoxy)benzyl)oxy)-2-naphthoyl)-L-allothreonine]
2 | C (“C” refers to AUC @10 uM <4) | 4100 | 112 | C[C@@H](OCc1ccccc1)[C@H](NC(=O)c1ccc2cc(F)ccc2c1OCC1CCCCC1)C(=O)O (stereo in doubt) [Example 202]
3 | C (“C” refers to AUC @10 uM <4) | – | 4.7 | C[C@@H](OCc1ccccc1)[C@H](NC(=O)c1ccc2ccccc2c1OCc1ccc(Cl)c(Cl)c1)C(=O)O (stereo in doubt) [Example 206]
4 | C (“C” refers to AUC @10 uM <4) | 1500 | 154 | CC(OCc1ccccc1)[C@H](NC(=O)c1ccc2cc(F)ccc2c1OCc1ccc(Cl)c(Cl)c1)C(=O)O (stereo in doubt) [Example 208, O-benzyl-N-(1-((3,4-dichlorobenzyl)oxy)-6-fluoro-2-naphthoyl)-L-allothreonine]
5 | B (“B” refers to AUC @10 uM between 4-6) | 700 | 164 | CC1(C(NC(=O)c2ccc3ccccc3c2OCc2ccc(OC(F)(F)F)cc2)C(=O)O)CCCCC1 (centres unmarked) [Example 1, 2-(1-methylcyclohexyl)-2-[[1-[[4-(trifluoromethoxy)phenyl]methoxy]naphthalene-2-carbonyl]amino]acetic Acid]
6 | C (“C” refers to AUC @10 uM <4) | 800 | 100 | CC(C)(c1ccccc1)[C@H](NC(=O)c1ccc2ccccc2c1OCc1ccc(SC(F)(F)F)cc1)C(=O)O [Example 5, (S)-3-methyl-3-phenyl-2-(1-((4-((trifluoromethyl)thio)benzyl)oxy)-2-naphthamido)butanoic Acid]
7 | C (“C” refers to AUC @10 uM <4) | 1100 | 88.4 | CC(C)(c1ccccc1)[C@H](NC(=O)c1ccc2ccccc2c1OCc1ccc(C(F)(F)F)cc1)C(=O)O [Example 9, (S)-3-methyl-3-phenyl-2-(1-((4-(trifluoromethyl)benzyl)oxy)-2-naphthamido)butanoic Acid]
8 | C (“C” refers to AUC @10 uM <4) | – | – | CC(C)(c1ccccc1)[C@H](NC(=O)c1ccc2cc(F)ccc2c1OCc1ccc(SC(F)(F)F)cc1)C(=O)O [Example 10, (S)-2-(6-fluoro-1-((4-((trifluoromethyl)thio)benzyl)oxy)-2-naphthamido)-3-methyl-3-phenylbutanoic Acid]
9 | C (“C” refers to AUC @10 uM <4) | 1200 | 81.3 | O=C(N[C@H](C(=O)O)C12CC(C(F)(F)F)(C1)C2)c1ccc2ccccc2c1OCc1ccc(C(F)(F)F)cc1 [Example 13, (S)-2-(1-((4-(trifluoromethyl)benzyl)oxy)-2-naphthamido)-2-(3-(trifluoromethyl)bicyclo[1.1.1]pentan-1-yl)acetic Acid]
10 | B (“B” refers to AUC @10 uM between 4-6) | 100 | 103 | O=C(N[C@H](C(=O)O)C12CCC(CC1)C2)c1ccc2ccccc2c1OCc1ccc(OC(F)(F)F)cc1 [Example 14, (S)-2-((1r,4S)-bicyclo[2.2.1]heptan-1-yl)-2-(1-((4-(trifluoromethoxy)benzyl)oxy)-2-naphthamido)acetic Acid]
11 | C (“C” refers to AUC @10 uM <4) | 700 | 63.9 | O=C(N[C@H](C(=O)O)C12CC(C(F)(F)F)(C1)C2)c1ccc2ccccc2c1OCc1ccc(SC(F)(F)F)cc1 [Example 17, (S)-2-(3-(trifluoromethyl)bicyclo[1.1.1]pentan-1-yl)-2-(1-((4-((trifluoromethyl)thio)benzyl)oxy)-2-naphthamido)acetic Acid]
12 | C (“C” refers to AUC @10 uM <4) | 21900 | 48.3 | CC(C)(C)[C@H](NC(=O)c1ccc2cc(F)ccc2c1OCc1ccc(OC(F)(F)F)cc1)C(=O)O [Example 19, (S)-2-(6-fluoro-1-((4-(trifluoromethoxy)benzyl)oxy)-2-naphthamido)-3,3-dimethylbutanoic Acid]
13 | C (“C” refers to AUC @10 uM <4) | 500 | 287 | CC(C)(C)[C@H](NC(=O)c1ccc2ccccc2c1OCc1ccc(C(F)(F)F)c(F)c1)C(=O)O [Example 25, (S)-2-(1-((3-fluoro-4-(trifluoromethyl)benzyl)oxy)-2-naphthamido)-3,3-dimethylbutanoic Acid]
14 | C (“C” refers to AUC @10 uM <4) | – | – | O=C(N[C@@H](Cc1ccccc1)C(=O)O)c1ccc2ccccc2c1OCc1ccc(F)cc1 [Example 94]
15 | C (“C” refers to AUC @10 uM <4) | – | – | CC(C)(C)c1ccc(COc2c(C(=O)N[C@@H](Cc3ccccc3)C(=O)O)ccc3ccccc23)cc1 [Example 96, (1-((4-(tert-butyl)benzyl)oxy)-2-naphthoyl)-L-phenylalanine]
16 | C (“C” refers to AUC @10 uM <4) | – | – | O=C(N[C@@H](Cc1ccc(C(F)(F)F)cc1)C(=O)O)c1ccc2cc(F)ccc2c1OCc1ccc(OC(F)(F)F)cc1 [Example 194, (S)-2-(6-fluoro-1-((4-(trifluoromethoxy)benzyl)oxy)-2-naphthamido)-3-(4-(trifluoromethyl)phenyl)propanoic Acid]
17 | C (“C” refers to AUC @10 uM <4) | – | – | CC(C)(C)C[C@H](NC(=O)c1ccc2cc(F)ccc2c1OCc1ccc(Cl)c(Cl)c1)C(=O)O [Example 211, (S)-2-(1-((3,4-dichlorobenzyl)oxy)-6-fluoro-2-naphthamido)-4,4-dimethylpentanoic Acid]
18 | A (“A” refers to AUC @10 uM >6) | – | – | CCC(C)(C)[C@@H](NC(=O)c1ccc2ccc(C)cc2c1OCc1ccc(C(F)(F)F)cc1)C(=O)O [Example 305, (R)-3,3-dimethyl-2-(7-methyl-1-((4-(trifluoromethyl)benzyl)oxy)-2-naphthamido)pentanoic Acid]
19 | – | 200 | 225 | CCCC(C)(CC)[C@H](NC(=O)c1ccc2ccc(F)cc2c1OCc1ccc(OC(F)(F)F)cc1)C(=O)O (stereo partly drawn) [compound 290, (2S)-3-ethyl-2-(7-fluoro-1-((4-(trifluoromethoxy)benzyl)oxy)-2-naphthamido)-3-methylhexanoic Acid]
20 | – | 200 | 219 | CC(C)(C)[C@H](NC(=O)c1ccc2ccc(C(F)(F)F)cc2c1OCc1ccc(OC(F)(F)F)cc1)C(=O)O [compound 292, (S)-3,3-dimethyl-2-(1-((4-(trifluoromethoxy)benzyl)oxy)-7-(trifluoromethyl)-2-naphthamido)butanoic Acid]
21 | – | 300 | 327 | CC(C)(C)[C@H](NC(=O)c1ccc2ccc(C(F)(F)F)cc2c1OCc1ccc(C(F)(F)F)cc1)C(=O)O [compound 293, (S)-3,3-dimethyl-2-(7-(trifluoromethyl)-1-((4-(trifluoromethyl)benzyl)oxy)-2-naphthamido)butanoic Acid]
22 | – | 700 | 153 | CC1([C@H](NC(=O)c2ccc3ccc(C(F)(F)F)cc3c2OCc2ccc(C(F)(F)F)cc2)C(=O)O)CC1 [compound 298, (S)-2-(1-methylcyclopropyl)-2-(7-(trifluoromethyl)-1-((4-(trifluoromethyl)benzyl)oxy)-2-naphthamido)acetic Acid]
